Among the data in the supplement of paper PMC4862054 are normalised viability values, retold here.

Structures are written as SMILES.

Holding throughout (assay): normalised viability (% of control), CellTiter-Blue; higher = more viable cells (about 100 = DMSO control)
Common to all, as to conditions: incubation time: 72 h
On the technique in general: The colour change of resazurin is a common sign of viable cells or microbes.

For test [1], the system named is HDQ-P1. The procedure: (§1)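 DSRT, CellTiter-Blue viability, 72 h incubation. Signal is normalised to DMSO and benzethonium chloride controls. Value is the normalised response at dose 6.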
Test [2] relates to DU-4475. The procedure:
as §1

Test [3] concerns CAL-51. The procedure:
as §1

For test [4], the system named is CAL-85-1. The procedure:
as §1

Test [5] deals with MDA-MB-453. The procedure:
as §1

For test [6], the system named is CAL-148. How it is done: as §1

For the compound `Oc1ccc2c(c1)CC[C@H](c1ccccc1)[C@@H]2c1ccc(OCCN2CCCC2)cc1` [Lasofoxifene] (30 nM), the normalised viability in test [1] was found to be 60.8%; in test [2], 93%; in test [3] it was 106%; in test [4], 100%; in test [5], 116%; in test [6] it was 116%.
With `c1ccc2c(CCNc3ccc(Nc4ccncc4)cc3)c[nH]c2c1` [Serdemetan] (300 nM), the normalised viability was determined as 57.9% in test [1]; 87.6% in test [2]; 108% in test [3]; 87.7% in test [4]; 109% in test [5]; 87.6% in test [6].
As for `Nc1cc(C(F)(F)F)c(-c2cc(N3CCOCC3)nc(N3CCOCC3)n2)cn1` [BKM-120] (300 nM), the normalised viability worked out at 71.9% in test [1]; 102% in test [2]; 78.4% in test [3]; 81.2% in test [4]; 71.2% in test [5]; 92.5% in test [6].
As for `S=P(N1CC1)(N1CC1)N1CC1` [Thio-TEPA] (3000 nM), the normalised viability in test [1] amounted to 90.4%; in test [2], 92.2%; in test [3], 94.8%; in test [4], 96.8%; in test [5], 95.5%; in test [6] it was 91.2%.
`NC(=O)c1ccc(I)c([N+](=O)[O-])c1` [Iniparib] (300 nM): the normalised viability was 87.2% in test [1]; 84% in test [2]; 98.7% in test [3]; 88.8% in test [4]; 95.2% in test [5]; 89.2% in test [6].
For the compound `Cc1cc(Nc2cc(CN3CCOCC3)c3nc(C)c(Cc4ccc(Cl)cc4F)n3n2)n[nH]1` (300 nM), the normalised viability in test [1] was 45.8%; in test [2], 104%; in test [3], 90.5%; in test [4], 103%; in test [5], 63.9%; in test [6], 89.3%.
On to `CC(C)C[C@@H](C(=O)N[C@H](C(=O)OC1CCCC1)c1ccccc1)[C@H](O)C(=O)NO` [Tosedostat] (300 nM), for which the normalised viability in test [1] came out at 81.5%; in test [2] it was 51.1%; in test [3], 86.5%; in test [4] it was 92.8%; in test [5], 51.8%; in test [6] it was 78.1%.
For the compound `O=C(Nc1ccncc1)C(=O)c1cn(Cc2ccc(Cl)cc2)c2ccccc12` [Indibulin] (300 nM), the normalised viability in test [1] was 30.7%; in test [2], 115%; in test [3], 71.3%; in test [4] it was 55.8%; in test [5], 41.4%; in test [6], 95.7%.
With `Cc1[nH]c2ccccc2c1CCNCc1ccc(/C=C/C(=O)NO)cc1` [Panobinostat] (30 nM), the normalised viability was found to be 62.8% in test [1]; 27.3% in test [2]; 68.8% in test [3]; 42.8% in test [4]; 3.77% in test [5]; 21.1% in test [6].
Turning to `Cc1ccc(NC(=O)c2ccc(CN3CCN(C)CC3)cc2)cc1Nc1nc(-c2cccnc2)cs1` [Masitinib] (300 nM), the normalised viability in test [1] worked out at 68.5%; in test [2] it was 98.7%; in test [3], 98.2%; in test [4], 90.4%; in test [5], 88.5%; in test [6], 84.7%.
On to `O=P1(N(CCCl)CCCl)NCCCO1` (stereo not given) [Cyclophosphamide] (1200 nM), for which the normalised viability in test [1] turned out to be 81.5%; in test [2], 96.2%; in test [3], 106%; in test [4], 108%; in test [5], 112%; in test [6], 107%.
On to `COc1cc2/c(=N/c3ccc(Br)cc3F)nc[nH]c2cc1OCC1CCN(C)CC1` [Vandetanib] (300 nM), for which the normalised viability in test [1] was 31.4%; in test [2] it was 101%; in test [3], 89.6%; in test [4], 83.7%; in test [5] it was 97.5%; in test [6] it was 90.7%.
As to `COCC1(CO)C(=O)C2CCN1CC2` (stereo not given) [Prima-1 Met] (300 nM), the normalised viability is 53.8% in test [1]; 116% in test [2]; 91.2% in test [3]; 83.3% in test [4]; 87.1% in test [5]; 94.5% in test [6].
As to `COc1cc(OC2CCN(C)CC2)ccc1Nc1ncc2c(n1)n(C1CCCC1)c(=O)n2C` [AZ 3146] (300 nM), the normalised viability in test [1] is 76.6%; in test [2], 115%; in test [3] it was 87.6%; in test [4], 109%; in test [5] it was 97.2%; in test [6], 115%.
As for `CNC(=O)c1cc(Oc2ccc(NC(=O)Nc3ccc(Cl)c(C(F)(F)F)c3)c(F)c2)ccn1` [Regorafenib] (300 nM), the normalised viability came to 89.8% in test [1]; 103% in test [2]; 100% in test [3]; 85.3% in test [4]; 95.6% in test [5]; 93.6% in test [6].
